One data set deals with ETS. As to the kind of experiment: Luciferase reporter assay, ETS, HeLa. The class given is cell-based, human. The protocol: (§1) Hela cells (or T98G cells) from ATCC were plated in white opaque 384-well plates at a density of 4300 cells/well in 30 µL of growth medium (DMEM with 10% FBS and 1% Pen/Strep). The next day, the medium was aspirated and replaced with DMEM containing 1% FBS. The cells were transfected with respective plasmids using X-tremeGENE HP DNA transfection reagent (Roche). After 24 h of transfection, the test agents were added to the transfected cells, followed 30 min later by an inducing agent: interleukin 6 (IL-6) for Stat3, TGF-β for Smad, m-wnt3a for Wnt and PMA for AP-1, NF-κB, E2F, Myc, ETS, Notch and Hedgehog. No inducer was added for FoXO and pTK. After 4 h or 6 h of induction, the cells were lysed via the addition of the One-Glo luciferase assay system (Promega; Madison, WI). The light output was detected in a GloMax®-Multi+ Detection System with Instinct® Software (Promega E 8051). This luciferase assay determines if the test agent is able to inhibit the activation of cancer-related signaling pathways. In the case of FoxO, the enhanced luciferase activity via the test agent was assessed.
(A reporter such as luciferase makes a cellular process visible.)

The test system of the next data set is Hedgehog. Put plainly: Luciferase reporter assay, Hedgehog, HeLa. The class given is cell-based, human. The procedure: as §1
The subject of another data set is FoxO. As to the kind of experiment: Luciferase reporter assay, FoxO, HeLa. Type of data set: cell-based. The conditions noted are these: Homo sapiens, no inducer; for IC50: HeLa cells, dash: no activity detected, read-out: IC50, FoxO (None). The protocol: as §1
The nature of data set [1]: Cytotoxicity, Neutral Red, KB. The class given is cell-based. The conditions noted are these: human, KB epidermal carcinoma (oral) cells, Na = not active up to 50 µg/mL. The protocol:
(§2) In vitro cytotoxic activity was determined against five human cancer cell lines—malignant melanoma (SK-MEL), epidermal carcinoma oral (KB), ductal carcinoma breast (BT-549), ovary carcinoma (SKOV-3) and cervical (HeLa) cancer cells—and two non-cancerous kidney cell lines (LLC-PK1 and Vero). All cell lines were obtained from the American Type Culture Collection (ATCC, Rockville, MD, USA). Each assay was performed in 96-well tissue culture-treated microplates. The cells were seeded at a density of 25,000 cells/well and incubated for 24 h. Samples at different concentrations were added, and the cells were incubated again for 48 h. At the end of the incubation, the cell viability was determined using Neutral Red dye according to a modification of the procedure used by Borenfreund et al.. IC50 values were determined from dose–response curves of the percent growth inhibition against test concentrations. Doxorubicin was used as a positive control, while DMSO was used as the negative (vehicle) control.

Data set [2] can be described thus: Cytotoxicity, Neutral Red, SK-MEL. The class given is cell-based. Conditions: human, SK-MEL malignant melanoma cells, Na = not active up to 50 µg/mL. The procedure:
as §2

In the next data set the test system is Myc. As to the kind of experiment: Luciferase reporter assay, Myc, HeLa. Conditions: Homo sapiens; for IC50: HeLa cells, inducer PMA, dash: not inhibited by more than 40% at 50 µmol/L. The class given is cell-based. The procedure:
as §1

A short description of data set [3]: Solubility in aqueous assay buffer. Conditions: aqueous buffer of the radioligand binding assay.
The next data set addresses T1, CB2 receptor (Homo sapiens, UniProt P34972).
T1 construct: expressed in transfected cells; host or cells: HEK293 (ATCC), stably transfected; membranes
As to the kind of experiment: Competitive radioligand binding assay, CB2. Conditions: for Percent displacement, CB2: 10 μM, [3H]-CP55,940. The protocol:
HEK293 cells stably transfected with δ, κ and μ opioid subtypes were a generous gift from Roth Laboratories (University of North Carolina at Chapel Hill, N.C., USA). CB and opioid cells were maintained as previously described.
Membranes were purified by first washing the cells with cold PBS and scraping the cells into cold 50 mM Tris-HCl, pH 7.4 buffer, which was centrifuged at 5200× g for 10 min at 4 °C; next, the supernatant was discarded, and the pellet was washed with more Tris-HCl buffer, homogenized via a Sonic Dismembrator (Fisher Scientific, Pittsburgh, PA, USA) and then centrifuged at 24,000× g for 40 min at 4 °C. Finally, the pellet was re-suspended in cold 50 mM Tris-HCl buffer, aliquoted into 2 mL vials and stored at −80 °C. The total membrane protein concentration was measured using a Pierce BCA Protein Assay Kit (Thermo Scientific, Rockford, IL, USA) as per the manufacturer’s protocol.
Cannabinoid and opioid competitive radioligand binding assays were performed as previously described. Saturation experiments were performed for all the receptors to determine the receptor concentration and radioligand dissociation constant (Kd) for the membrane. Percent displacements were evaluated for all the cannabinoid and opioid subtypes with a triplicate of a fixed concentration (10 µg/mL for extracts and fractions and 10 μM for purified compounds). […] Control/test compounds were dissolved in DMSO at 10 μg/mL for extracts and fractions and 10 μM for purified compounds. […] The percent displacement was calculated to represent the ability of the samples to displace the radioligand binding for a given cannabinoid or opioid receptor subtype.
The percent displacement was calculated as follows: 100−binding of compound−nonspecific binding/specific binding×100
The competitive binding assays were performed using 12 serial dilutions of each compound ranging from 0.002 to 300 μM (control compounds were serially diluted from 10 μM to 0.06 nM). The cannabinoid assays were incubated for 90 min at 37 °C with gentle agitation. The opioid assays were incubated for 60 min at room temperature. Bound radioligands were collected on GF/C (cannabinoid) or GF/B plates (opioid) and washed 10 times with ice-cold 50 mM Tris-HCl (pH 7.4)/0.1% BSA (cannabinoid) or ice-cold 50 mM Tris-HCl (pH 7.4) (opioid). Radiodetection was measured with 50 µL (cannabinoid) or 25 µL (opioid) of MicroScint^TM-20 on a TopCount NXT HTS Microplate Scintillation Counter (PerkinElmer, Waltham, MA, USA). The IC50 and Ki values were calculated via a non-linear curve fit model using GraphPad Prism 5.0 software (GraphPad Software, Inc., San Diego, CA, USA). Each compound was tested in triplicate unless stated otherwise.

Data set [4] in a line: Cytotoxicity, Neutral Red, SK-OV-3. The class given is cell-based. Conditions: human, SK-OV-3 ovary carcinoma cells, Na = not active up to 50 µg/mL. The procedure:
as §2

Data set [5] deals with SK-MEL, KB, BT-549, SK-OV-3, HeLa, LLC-PK1 and Vero cells. Put plainly: Cytotoxicity, summary over the cell line panel. Type of data set: cell-based. The conditions noted are these: highest tested concentration of 50 µg/mL; most of the cells. The procedure:
as §2

Data set [6] is described as follows: Cytotoxicity, Neutral Red, BT-549. Type of data set: cell-based. The conditions noted are these: human, BT-549 breast ductal carcinoma cells, Na = not active up to 50 µg/mL. The procedure:
as §2

Data set [7] can be described thus: Cytotoxicity, summary over the cell line panel. The class given is cell-based. Conditions: human, HeLa, SK-MEL, KB and BT-549 cells; read-out: Cytotoxicity IC50 values, span over cell lines. The procedure:
as §2

Setting [8] is: Homo sapiens, HeLa cells, inducer PMA, dash: not inhibited by more than 40% at 50 µmol/L.
Where [9] appears, read: HeLa cells, inducer PMA, dash: not inhibited by more than 40% at 50 µmol/L.

Molecules are shown by their SMILES. Converted amounts (≈) assume the structure as drawn. Read-outs that look alike come from different tables or passages of the source.

The term inhibition denotes the drop in the measured response relative to a control, in per cent. Broadly, the IC50 is the concentration that inhibits the measured activity by half. Broadly, the solubility is how much of the substance goes into solution per volume. The Ki is a dissociation constant, usually derived from enzyme kinetics or from competition with a known ligand.

T1 sequence (P34972 whole entry): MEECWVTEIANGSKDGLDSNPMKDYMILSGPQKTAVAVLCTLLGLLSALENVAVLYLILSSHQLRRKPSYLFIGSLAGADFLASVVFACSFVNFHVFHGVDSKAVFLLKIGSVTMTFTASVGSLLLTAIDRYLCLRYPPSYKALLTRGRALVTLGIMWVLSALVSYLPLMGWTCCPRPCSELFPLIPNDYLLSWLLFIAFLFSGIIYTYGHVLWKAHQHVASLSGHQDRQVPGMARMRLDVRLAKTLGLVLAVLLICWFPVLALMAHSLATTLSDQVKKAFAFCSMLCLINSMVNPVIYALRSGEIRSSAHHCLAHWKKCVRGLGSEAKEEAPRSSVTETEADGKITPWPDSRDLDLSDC

With `C[C@H]1CC[C@H]2[C@H](C1)c1c(O)cc(/C=C/c3ccccc3O)cc1OC2(C)C` [compound 3, machaeriol C], the inhibition at 10 µM in the data set on ETS (Homo sapiens, HeLa, 3 alone at 10 µM, compared to pTK as control, read-out: Additive effect (in % inhibition): percentage of luciferase induction, ETS (PMA)) amounted to 66%; with Hedgehog (Homo sapiens, HeLa, 3 alone at 10 µM, compared to pTK as control, read-out: Additive effect (in % inhibition): percentage of luciferase induction, Hedgehog (PMA)), 66%; in the data set with FoxO (HeLa, 3 alone at 10 µM, read-out: Additive effect (in % inhibition): percentage of luciferase induction, FoxO (None)), 120%; in the data set on Myc (HeLa, 3 alone at 10 µM, compared to pTK as control, read-out: Additive effect (in % inhibition): percentage of luciferase induction, Myc (PMA)) it was 52%. Moreover, the IC50 in the data set on ETS (setting [8]) is 15 µM; in the data set with Hedgehog (setting [8]), 10 µM; with FoxO, greater than 50 µM; in the data set with Myc, 10 µM. Further, the IC50 at 48 h in data set [1] was greater than 50 µg/mL; in data set [2], 25 µg/mL (≈ 68.6 µM); in data set [4], greater than 50 µg/mL; in data set [6] it was greater than 50 µg/mL. In data set [3], this compound registered a solubility of less than 33.3 µM. Besides, the Ki at CB2 receptor was greater than 7.76 µM. Moreover, the “Percent displacement, CB2” value on CB2 receptor came out at 55.5%. Further, in [5], the “Cytotoxicity (in words)” value was “inactive”.

Regarding `C=C(C)[C@H]1CC[C@H](C)C[C@@H]1c1c(O)cc(/C=C/c2ccccc2O)cc1O` [compound 6, machaeridiol B], the “IC50, ETS (PMA)” value in the data set on ETS (setting [9]) was “inactive”. For the same compound, the inhibition at 2 µM with ETS (Homo sapiens, HeLa, 6 alone at 2 µM, compared to pTK as control, read-out: Additive effect (in % inhibition): percentage of luciferase induction, ETS (PMA)) stood at 107%; in the data set with Hedgehog (Homo sapiens, HeLa, 6 alone at 2 µM, compared to pTK as control, read-out: Additive effect (in % inhibition): percentage of luciferase induction, Hedgehog (PMA)), 92%; in the data set with FoxO (HeLa, 6 alone at 2 µM, read-out: Additive effect (in % inhibition): percentage of luciferase induction, FoxO (None)), 105%; with Myc (HeLa, 6 alone at 2 µM, compared to pTK as control, read-out: Additive effect (in % inhibition): percentage of luciferase induction, Myc (PMA)), 111%. Also, the IC50 was greater than 50 µM with ETS (setting [8]), greater than 50 µM with Hedgehog (setting [8]), greater than 50 µM with FoxO and 5.3 µM in the data set with Myc. Also, the “IC50, Hedgehog (PMA)” value in the data set with Hedgehog (setting [9]) was “inactive”. Also, the IC50 at 48 h was 38 µg/mL (≈ 104 µM) in [1]; 32 µg/mL (≈ 87.8 µM) in data set [2]; greater than 50 µg/mL in [4]; 32 to 38 µg/mL (≈ 87.8 to 104 µM) in data set [7]; 36 µg/mL (≈ 98.8 µM) in data set [6]. In addition, the solubility in data set [3] is less than 33.3 µM. The “Percent displacement, CB2” value at CB2 receptor is 56.8%. For the same compound, the Ki on CB2 receptor (* tested up to solubility limit, conc. at 33.3 μM and above precipitated, read-out: CB2 Ki ± SEM) is greater than 2.18 µM.

These data come from article PMC10361207, “Cannabinoid and Opioid Receptor Affinity and Modulation of Cancer-Related Signaling Pathways of Machaeriols and Machaeridiols from Machaerium Pers” (Molecules, 2023).
